Read-outs that look alike come from different tables or passages of the source.
Experiments:
[1] = test system: DoHH-2, OCI-LY3, WSU-DLCL2 (all wild-type for MLL2); experiment: alamarBlue cell proliferation assay, MLL2 wild-type cell lines; type: cell-based; conditions: in words
Description: Diffuse large B-cell lymphoma cell lines were maintained in RPMI medium 1640 (Life Technologies) supplemented with 10% (v/v) fetal bovine serum (Life Technologies) and 1% penicillin/streptomycin (Life Technologies) in a 37° C. incubator with 5% CO2, humidified atmosphere. Cell line DOHH2 was obtained from DSMZ. Pfeiffer was obtained from ATCC. SU-DHL-9 was obtained from Martin Dyer (University of Leicester, UK).
(§1) Compounds were initially solubilized in DMSO at a concentration of 10 mM. This compound solution was further diluted 1:100 in RPMI medium 1640 to a final concentration of 100 μM. Ninety microliters of cells maintained at a concentration of 4×10^5 cells/mL were dispensed into wells of a MICROTEST™ 96-well Assay Plate, Optilux™ (BD). Ten microliters of the 100 μM compound solution were then added to the cells resulting in a final compound concentration of 10 μM. Each compound was tested in triplicate. Ten microliters of a 1:100 DMSO to RPMI medium 1640 solution were also added to 90 μL of cells as a carrier control. Furthermore, each plate included wells containing only RPMI medium 1640 to serve as a background noise control as well as cells that were completely untreated. Compounds were incubated with the cells in a 37° C. incubator with 5% CO2, humidified atmosphere for 48 hours before being subjected to the alamarBlue® cell proliferation assay (Life Technologies). Raw fluorescent units were corrected for background noise and normalized to the carrier-treated control.
The activity of Compound 3 in vitro was investigated further using the cell lines DoHH-2, OCI-LY3, WSU-DLCL2 (all wild-type for MLL2) and SU-DHL9. In addition, the dose response for Compound 2 was investigated in cell lines mutant for MLL2 or both MLL2 and EZH2. The dose response for Compound 3 was investigated in a MLL2 mutant cell line. Methods were as described for Example 3. Cell-line WSU-DLCL2 was obtained from DSMZ and OCI-Ly lines 3 was obtained from Louis Staudt (US National Institutes of Health).

[2] = test system: SU-DHL-9 (MLL2 homozygous indel mutant) cell line; experiment: alamarBlue cell proliferation assay, SU-DHL-9 cell line; type: cell-based, human; conditions: for activity at 10 µM: Homo sapiens, read-out: % Cell Proliferation; for activity as worded in SAR analysis (selective toxicity against SU-DHL-9): in words, restates Tables 3 and 4
Description: Cell line DOHH2 was obtained from DSMZ. Pfeiffer was obtained from ATCC. SU-DHL-9 was obtained from Martin Dyer (University of Leicester, UK).
as §1, with “This compound solution was further diluted 1:100 in RPMI medium 1640 to a final concentration of 100 μM.” left out, “Ten microliters of a 1:100 DMSO to RPMI medium 1640 solution were also added to 90 μL of cells as a carrier control. Furthermore, each plate included wells containing only RPMI medium 1640 to serve as a background noise control as well as cells that were completely untreated.” left out

[3] = test system: WSU-DLCL2 Cells (EZH2 mutation Y641F); experiment: Cell viability of lymphoma cell lines, WSU-DLCL2; type: cell-based, human; design: Effect on Cell Viability (% survival) WSU-DLCL2 Cells: concentration or dose not given beside the values; conditions: Table 5
Description: (§2) Compound 50 was tested for its effect on the viability of three lymphoma cell lines in vitro using standard methods. The cell lines tested were: DoHH-2 (wildtype for EZH2, MEF2B and MLL2); WSU-DLCL2 (EZH2 mutation Y641F (wildtype for MEF2B and MLL2)) and DB (EZH2 mutation Y641N, the MEF2B mutation D83V and three mutations in MLL2 (two of which lead to a truncated protein after residue Q2736 and the third allele has a 1 base pair deletion at residue P480)).
(§3) Compound 51 (NSC2540) was tested for its effect on the viability of four lymphoma cell lines in vitro using standard methods. The cell lines tested were DoHH-2, WSU-DLCL2, DB and SU-DHL-9 (EZH2 wildtype, MEF2B wildtype, MLL2 indel).

[4] = test system: DoHH2 Cells (wildtype for EZH2, MEF2B and MLL2); experiment: Cell viability of lymphoma cell lines, DoHH-2; type: cell-based; design: Effect on Cell Viability (% survival) DoHH2 Cells: concentration or dose not given beside the values; conditions: Table 5
Description: as §2, §3

[5] = Table 3, scaffold A, 10 μM, 48 hours, normalized to carrier-treated control, SU-DHL-9
[6] = Table 4, scaffold B, 10 μM, 48 hours, normalized to carrier-treated control, SU-DHL-9

Row | Compound | Effect on Cell Viability (% survival) WSU-DLCL2 Cells [3] [%] | Effect on Cell Viability (% survival) DoHH2 Cells [4] [%] | other results
1 | C=C(CN(C)C)C(=O)c1cc(C)ccc1C [Compound 1, 2-dimethylaminomethyl-1-(2,5-dimethyl-phenyl)-propenone] | – | – | activity against wild-type cells [1]: inactive; activity at 10 µM [2, 5]: < 10%; activity against the MLL2 double LoF mutant cell line ([2]; SU-DHL-9, in words): active; activity as worded in SAR analysis (selective toxicity against SU-DHL-9) [2]: active
2 | C=CS(=O)(=O)c1ccc2ccccc2c1 [Compound 6, 2-ethenylsulfonylnaphthalene] | – | – | activity at 10 µM [2, 5]: 69%; activity as worded in SAR analysis (selective toxicity against SU-DHL-9) [2]: only moderate activity
3 | C=C(CNC(C)(C)C)C(=O)c1ccccc1 [Compound 8, 2-[(tert-butylamino)methyl]-1-phenylprop-2-en-1-one] | – | – | activity at 10 µM [2, 5]: 92%
4 | O=C1c2ccccc2-c2c(NC(=O)C(Cl)Cl)cccc21 [Compound 9, 2,2-dichloro-N-(9-oxofluoren-4-yl)acetamide] | – | – | activity at 10 µM [2, 6]: 117%
5 | C=C(CN1CCOCC1)C(=O)c1ccccc1 [Compound 11, 2-(morpholin-4-ylmethyl)-1-phenylprop-2-en-1-one] | – | – | activity at 10 µM [2, 5]: 26%
6 | CC(=O)C(=O)c1ccccc1 [Compound 12] | – | – | activity at 10 µM ([2]; 48 h): 105%
7 | C=CC(=O)c1ccccc1 [Compound 13] | – | – | activity at 10 µM [2, 5]: 137%
8 | C=C(CN(C)C)C(=O)c1ccc(C(=O)C(=C)CN(C)C)cc1 [Compound 14] | – | – | activity at 10 µM [2, 5]: 93%; activity as worded in SAR analysis (selective toxicity against SU-DHL-9) [2]: lacks activity
9 | C=C(CN(C)C)C(=O)c1ccc(C)cc1C [Compound 15] | – | – | activity at 10 µM [2, 5]: 61%
10 | C=C(CN(C)C)C(=O)c1ccccc1C [Compound 16] | – | – | activity at 10 µM [2, 5]: 107%; activity as worded in SAR analysis (selective toxicity against SU-DHL-9) [2]: inactive or minimally active
11 | COc1ccccc1C(=O)C(=O)CN(C)C [Compound 17] | – | – | activity at 10 µM [2, 5]: 89%; activity as worded in SAR analysis (selective toxicity against SU-DHL-9) [2]: inactive or minimally active
12 | C=C(CN(C)C)C(=O)c1ccccc1 [Compound 19] | – | – | activity at 10 µM [2, 5]: 77%; activity as worded in SAR analysis (selective toxicity against SU-DHL-9) [2]: inactive or minimally active
13 | C=C(CN(C)C)C(=O)c1ccc(OC)cc1 [Compound 20] | – | – | activity at 10 µM [2, 5]: 83%
14 | C=CCCC(=C)c1ccccc1 [Compound 21] | – | – | activity at 10 µM [2, 5]: 105%
15 | O=C1c2ccccc2-c2cccc(NC(=O)C(Cl)Cl)c21 [Compound 22] | – | – | activity at 10 µM [2, 6]: 86%; activity as worded in SAR analysis (selective toxicity against SU-DHL-9) [2]: partially active
16 | CC(=O)NC(CC(=O)Nc1cccc2c1C(=O)c1ccccc1-2)C(C)=O (stereo not drawn) [Compound 23] | – | – | activity at 10 µM [2, 6]: 114%; activity as worded in SAR analysis (selective toxicity against SU-DHL-9) [2]: inactive
17 | CC(=O)Nc1cccc2c1C(=O)c1ccccc1C2=O [Compound 24] | – | – | activity at 10 µM [2, 6]: 107%; activity as worded in SAR analysis (selective toxicity against SU-DHL-9) [2]: inactive
18 | OC(CBr)c1cc(-c2ccccc2)nc2ccccc12 (stereo not drawn) [Compound 25] | 60 | 100 | –
19 | CC(O)c1cc(-c2ccccc2)nc2ccccc12 (stereo not drawn) [Compound 26] | 90 | 100 | –
20 | O=C(CBr)c1cc(-c2ccc(Cl)cc2)nc2ccccc12 [Compound 27] | 40 | 90 | –
21 | CC(=O)c1cc(-c2ccc(Cl)cc2)nc2ccccc12 [Compound 28] | 100 | 100 | –

Row | Compound | Effect on Cell Viability (% survival) WSU-DLCL2 Cells [3] [%] | Effect on Cell Viability (% survival) DoHH2 Cells [4] [%] | other results
22 | CC(O)c1cc(-c2ccc(Cl)cc2)nc2ccccc12 (stereo not drawn) [Compound 29] | 80 | 100 | –
23 | O=C(CBr)c1cc(-c2ccc(Cl)cc2)nc2cc(Cl)ccc12 [Compound 30] | 40 | 60 | –
24 | OC(CBr)c1cc(-c2ccc(Cl)cc2)nc2cc(Cl)ccc12 (stereo not drawn) [Compound 31] | 100 | 100 | –
25 | CC(=O)c1cc(-c2ccc(Cl)c(Cl)c2)nc2c(Cl)cc(Cl)cc12 [Compound 32] | 90 | 100 | –
26 | O=C(c1cc(-c2ccc(Cl)c(Cl)c2)nc2c(Cl)cc(Cl)cc12)C1NN1 [Compound 33] | 100 | 100 | –
27 | OC(CBr)c1cc(-c2ccccc2)nc2c(Cl)cc(Cl)cc12 (stereo not drawn) [Compound 34] | 90 | 100 | –
28 | O=C(CBr)c1cc(-c2ccc(Cl)cc2)nc2c(-c3ccccc3)cccc12 [Compound 35] | 17 | 20 | –
29 | OC(CBr)c1cc(-c2ccc(Cl)cc2)nc2c(-c3ccccc3)cccc12 (stereo not drawn) [Compound 36] | 90 | 100 | –
30 | O=C(Cl)c1cc(-c2ccc(Cl)cc2)nc2c(-c3ccccc3)cccc12 [Compound 37] | 80 | 100 | –
31 | OC(c1cc(-c2ccc(Cl)cc2)nc2cc(Cl)ccc12)N1CCCCC1 (stereo not drawn) [Compound 38] | 80 | 100 | –
32 | OC(c1cc(-c2ccc(Cl)cc2Cl)nc2cc(Cl)ccc12)C1CCCCN1 (stereo not drawn) [Compound 39] | 20 | 60 | –
33 | OC(c1cc(-c2ccc(Cl)cc2)nc2ccccc12)C1CCCCN1 (stereo not drawn) [Compound 40] | 50 | 100 | –
34 | OC(c1cc(-c2cccc(Cl)c2)nc2ccccc12)C1CCCCN1 (stereo not drawn) [Compound 41] | 10 | 17 | –
35 | OC(c1cc(-c2ccccc2)nc2c(Cl)cc(Cl)cc12)C1CCCCN1 (stereo not drawn) [Compound 42] | 10 | 30 | –
36 | OC(c1cc(-c2ccccc2)nc2cc(Cl)ccc12)C1CCCCN1 (stereo not drawn) [Compound 43] | 10 | 40 | –
37 | OC(c1cc(-c2ccccc2)nc2c1ccc1ccccc12)C1CCCCN1 (stereo not drawn) [Compound 44] | 10 | 10 | –
38 | CCN(CC)CC(O)c1cc(-c2ccc(Cl)cc2)nc2cc(Cl)ccc12 (stereo not drawn) [Compound 45] | 80 | 100 | –
39 | CCCN(CCC)CC(O)c1cc(-c2ccc(Cl)cc2)nc2c(C)c(Cl)ccc12 (stereo not drawn) [Compound 46] | 90 | 100 | –
40 | Cc1c(Cl)ccc2c(C(O)CN(C)C)cc(-c3ccc(Cl)cc3)nc12 (stereo not drawn) [Compound 47] | 100 | 100 | –
41 | Cc1c(Cl)ccc2c(C(=O)NN)cc(-c3ccc(Cl)cc3)nc12 [Compound 48] | 40 | 90 | –
42 | Cc1c(Cl)ccc2c(C(=O)CNCc3ccccc3)cc(-c3ccc(Cl)cc3)nc12 [Compound 49] | 50 | 70 | –
